Results reported in US20220087996A1, “Histone acetylase p300 inhibitor and use thereof” (HINOVA PHARMACEUTICALS INC., priority 2018, published 2022).
Read-outs that look alike come from different tables or passages of the source.

Key:
CWR22RV1 cells = test: Inhibition of proliferation of CWR22RV1 cells (CCK-8); type: cell-based, human; details: Homo sapiens, CWR22Rv1, 144 h, 6 days culture
Outline: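 Proliferation read-out was CCK-8 absorbance at 450 nm after 2.5 h, following 6-day culture with compound. Each well held 1500 CWR22RV1 cells; the 3-fold, 9-point series started at a final 10 μM in 0.1% DMSO. Dose-response-inhibition fit gave the IC50.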

VCAP = test: Inhibition of proliferation of VCAP cells; type: cell-based; details: Homo sapiens; Prostate cancer cell line VCAP; read-out: IC50 against VCAP
Experimental: (§1) 1) CWR22RV1 cells were subcultured in cell culture medium, and the cells in good growth condition were seeded in a 96-well plate, 80 μL for each well, and the cell number in each well was 1500. The plate was incubated overnight in a 37° C., 5% CO2 cell incubator. 2) The drug was prepared as 30 mM stock solution with dimethyl sulfoxide (DMSO). Prior to use, the stock solution was diluted 3 times with DMSO, and then further diluted as 3-fold gradient to obtain 9 concentration gradients. Then, each concentration of compound was diluted 200 times with the culture solution (ensuring that the DMSO concentration in the culture system was 0.1%), and two replicate wells were set for each concentration. 20 μL of diluted compound solution was added to the cell culture well (with final concentrations of 10 μM, 3.3 μM. 1.1 μM . . . ), and the plate was gently shaken to mix. In addition, 3 negative control wells containing only cells and 3 blank control wells containing only culture medium were included (6 wells were each added 20 μL DMSO diluted 200 times with culture medium). 2. Result detection: (1) After culturing for 6 days, 10 μL CCK-8 was added to each well, and the plate was continually cultured in a 37° C., 5% CO2 cell incubator for 2.5 h. (2) The absorbance (OD value) was detected at 450 nm using a multifunctional microplate reader. (3) The data were analyzed by Dose-response-inhibition equation in the software GraphPad Prism6, and the IC50 value was obtained.
(§2) Using the same method as Experimental example 2, CWR22RV1 cells were replaced with tumor cells in Table 3, and the IC50 (nM) of the compound according to the present invention against the activity of these tumor cells was tested and calculated.

LNCAP-AR = test: Inhibition of proliferation of LNCAP-AR cells; type: cell-based; details: Prostate cancer cell line LNCAP-AR; read-out: IC50 against LNCAP-AR
Experimental: as §1, §2

LNCAP = test: Inhibition of proliferation of LNCAP cells; type: cell-based; details: Homo sapiens; Prostate cancer cell line LNCAP; read-out: IC50 against LNCAP
Experimental: as §1, §2

MOLT-4 = test: Inhibition of proliferation of MOLT-4 cells; type: cell-based; details: Homo sapiens; Leukemia cell line MOLT-4; read-out: IC50 against MOLT-4
Experimental: as §1, §2

TALL-1 = test: Inhibition of proliferation of TALL-1 cells; type: cell-based; details: Homo sapiens; Leukemia cell line TALL-1; read-out: IC50 against TALL-1
Experimental: as §1, §2

HEL = test: Inhibition of proliferation of HEL cells; type: cell-based; details: Homo sapiens; Leukemia cell line HEL; read-out: IC50 against HEL
Experimental: as §1, §2

ATN-1 = test: Inhibition of proliferation of ATN-1 cells; type: cell-based; details: Homo sapiens; Leukemia cell line ATN-1; read-out: IC50 against ATN-1
Experimental: as §1, §2

MOLM-16 = test: Inhibition of proliferation of MOLM-16 cells; type: cell-based; details: MOLM16; Leukemia cell line MOLM-16; read-out: IC50 against MOLM-16
Experimental: as §1, §2

OCI-AML3 = test: Inhibition of proliferation of OCI-AML3 cells; type: cell-based; details: Homo sapiens, OCI-AML-3; Leukemia cell line OCI-AML3; read-out: IC50 against OCI-AML3
Experimental: as §1, §2

MT-2 = test: Inhibition of proliferation of MT-2 cells; type: cell-based; details: Homo sapiens, MT2; Leukemia cell line MT-2; read-out: IC50 against MT-2
Experimental: as §1, §2

Pfeiffer = test: Inhibition of proliferation of Pfeiffer cells; type: cell-based; details: Homo sapiens; Lymphoma cell line Pfeiffer; read-out: IC50 against Pfeiffer
Experimental: as §1, §2

KARPAS-422 = test: Inhibition of proliferation of KARPAS-422 cells; type: cell-based; details: Homo sapiens; Lymphoma cell line KARPAS-422; read-out: IC50 against KARPAS-422
Experimental: as §1, §2

Z-138 = test: Inhibition of proliferation of Z-138 cells; type: cell-based; details: Homo sapiens; Lymphoma cell line Z-138; read-out: IC50 against Z-138
Experimental: as §1, §2

RL = test: Inhibition of proliferation of RL cells; type: cell-based; details: Homo sapiens; Lymphoma cell line RL; read-out: IC50 against RL
Experimental: as §1, §2

MM.1R = test: Inhibition of proliferation of MM.1R cells; type: cell-based; details: Lymphoma cell line MM.1R; read-out: IC50 against MM.1R
Experimental: as §1, §2

MLMA = test: Inhibition of proliferation of MLMA cells; type: cell-based; details: Lymphoma cell line MLMA; read-out: IC50 against MLMA
Experimental: as §1, §2

MAVER-1 = test: Inhibition of proliferation of MAVER-1 cells; type: cell-based; details: Homo sapiens, Maver1; Lymphoma cell line MAVER-1; read-out: IC50 against MAVER-1
Experimental: as §1, §2

KMS-12-PE = test: Inhibition of proliferation of KMS-12-PE cells; type: cell-based; details: Homo sapiens; Lymphoma cell line KMS-12-PE; read-out: IC50 against KMS-12-PE
Experimental: as §1, §2

MDA-MB-453 = test: Inhibition of proliferation of MDA-MB-453 cells; type: cell-based; details: Homo sapiens; Breast cancer cell line MDA-MB-453; read-out: IC50 against MDA-MB-453
Experimental: as §1, §2

MCF-7 = test: Inhibition of proliferation of MCF-7 cells; type: cell-based; details: Homo sapiens, MCF7; Breast cancer cell line MCF-7; read-out: IC50 against MCF-7
Experimental: as §1, §2

BT-474 = test: Inhibition of proliferation of BT-474 cells; type: cell-based; details: Homo sapiens; Breast cancer cell line BT-474; read-out: IC50 against BT-474
Experimental: as §1, §2

DU4475 = test: Inhibition of proliferation of DU4475 cells; type: cell-based; details: Homo sapiens, DU-4475; Breast cancer cell line DU4475; read-out: IC50 against DU4475
Experimental: as §1, §2

HCC1428 = test: Inhibition of proliferation of HCC1428 cells; type: cell-based; details: Homo sapiens; Breast cancer cell line HCC1428; read-out: IC50 against HCC1428
Experimental: as §1, §2

EVSA-T = test: Inhibition of proliferation of EVSA-T cells; type: cell-based; details: Homo sapiens; Breast cancer cell line EVSA-T; read-out: IC50 against EVSA-T
Experimental: as §1, §2

KMS-20 = test: Inhibition of proliferation of KMS-20 cells; type: cell-based; details: Multiple myeloma cell line KMS-20; read-out: IC50 against KMS-20
Experimental: as §1, §2

KMS-11 = test: Inhibition of proliferation of KMS-11 cells; type: cell-based; details: Homo sapiens; Multiple myeloma cell line KMS-11; read-out: IC50 against KMS-11
Experimental: as §1, §2

MM.1S = test: Inhibition of proliferation of MM.1S cells; type: cell-based; details: Homo sapiens, MM1.S; Multiple myeloma cell line MM.1S; read-out: IC50 against MM.1S
Experimental: as §1, §2

NCI-H929 = test: Inhibition of proliferation of NCI-H929 cells; type: cell-based; details: Homo sapiens; Multiple myeloma cell line NCI-H929; read-out: IC50 against NCI-H929
Experimental: as §1, §2

OPM-2 = test: Inhibition of proliferation of OPM-2 cells; type: cell-based; details: Homo sapiens; Multiple myeloma cell line OPM-2; read-out: IC50 against OPM-2
Experimental: as §1, §2

CNC(=O)Nc1cc2c(cc1F)[C@@]1(CC2)OC(=O)N(CC(=O)N2[C@@H](C)CC[C@H]2c2cc(F)c(F)c(F)c2)C1=O [Example 390, 1-((R)-6-fluoro-3′-(2-((2S,5S)-2-methyl-5-(3,4,5-trifluorophenyl)pyrrolidin-1-yl)-2-oxoethyl)-2′,4′-dioxo-2,3-dihydrospiro[indene-1,5′-oxazolidine]-5-yl)-3-methylurea] was tested, and the IC50 (CWR22RV1 cells; read-out: IC50 against CWR22RV1 cells) was at most 0.5 µM, the IC50 (CWR22RV1 cells; read-out: IC50 against CWR22RV1 cells (text)) was at most 0.5 µM and the IC50 (VCAP) was at most 0.5 µM. For the same molecule, the IC50 (LNCAP-AR) was at most 0.5 µM, the IC50 (LNCAP) was at most 0.5 µM and the IC50 (MOLT-4) was at most 0.5 µM. For the same molecule, the IC50 (TALL-1) was at most 0.5 µM, the IC50 (HEL) was at most 0.5 µM and the IC50 (ATN-1) was at most 0.5 µM. The IC50 (MOLM-16) was at most 0.5 µM, the IC50 (OCI-AML3) was at most 0.5 µM and the IC50 (MT-2) was 0.5 to 2 µM. It also gave an IC50 (Pfeiffer) of at most 0.5 µM, an IC50 (KARPAS-422) of at most 0.5 µM and an IC50 (Z-138) of at most 0.5 µM. The IC50 (RL) was at most 0.5 µM, the IC50 (MM.1R) was 0.5 to 2 µM and the IC50 (MLMA) was at most 0.5 µM. The IC50 (MAVER-1) was at most 0.5 µM, the IC50 (KMS-12-PE) was 0.5 to 2 µM and the IC50 (MDA-MB-453) was at most 0.5 µM. The IC50 (MCF-7) was at most 0.5 µM, the IC50 (BT-474) was at most 0.5 µM and the IC50 (DU4475) was 0.5 to 2 µM. For the same molecule, the IC50 (HCC1428) was at most 0.5 µM, the IC50 (EVSA-T) was 0.5 to 2 µM and the IC50 (KMS-20) was at most 0.5 µM. It also gave an IC50 (KMS-11) of at most 0.5 µM, an IC50 (MM.1S) of 0.5 to 2 µM and an IC50 (NCI-H929) of at most 0.5 µM. For the same molecule, the IC50 (OPM-2) was at most 0.5 µM.
